Literature values, collected in patent US6906047B2, “Aqueous ifosfamide composition” (Gensia Sicor Pharmaceuticals, Inc., priority 2001, dated 2005).

O=P1(NCCCl)OCCCN1CCCl (stereo not shown) [ifosfamide, 3-(2-chloroethyl)-2-[(2-chloroethylamino)]-tetrahydro-2H-1,3,2-oxazaphosphorin-2-oxide]
solubility of ifosfamide in water: about 10 % by weight
